Experimental data published in patent US20250361259A1, “AMORPHOUS FORM OF REDUCED ß-NICOTINAMIDE MONONUCLEOTIDE CALCIUM SALT, AND PREPARATION METHOD AND USE THEREFOR” (EffePharm (Shanghai) Co., Ltd., priority 2023, published 2025).
Where two headings read alike, the source gives them in different places.

What was measured:
[1] = Hygroscopicity study (water content, KF) at 25° C., 65% RH; type: physicochemical
Description: The NMNH calcium salt amorphous solids A/B/C/D were each placed openly in a stability test chamber at 25° C. and 65% RH to evaluate their stability, yielding the data shown in Table 1 and Table 2. […] The amorphous solid of NMNH disodium salt is more unstable in the air. After 1 day of storage, it absorbs water from powder to oil, and the purity drops from 99.30% to 99.02%.

[2] = Stability comparison, solids placed openly in a stability test chamber at 25° C. and 65% RH (purity by HPLC, appearance); type: physicochemical; conditions: open, calcium salt
Description: NMNH is the reduced form of NMN, sensitive to air, easily oxidized, and unstable, making it unsuitable for long-term storage and market promotion. WO2023160405(A1) reported the NMNH disodium salt compound and its crystalline and amorphous forms. […] Such stability fails to meet the shelf-life requirements for commercial products, hindering market promotion. The NMNH calcium salt amorphous solids A/B/C/D were each placed openly in a stability test chamber at 25° C. and 65% RH to evaluate their stability, yielding the data shown in Table 1 and Table 2.

[3] = 25° C., 65% RH, according to WO2023160405(A1), cited from earlier work
[4] = according to WO2023160405(A1); cited from earlier work

SMILES: NC(=O)C1=CN([C@@H]2O[C@H](COP(=O)(O)O)[C@@H](O)[C@H]2O)C=CC1.[Ca+2] [NMNH calcium salt Amorphous form B, reduced β-nicotinamide mononucleotide calcium salt]
- Water content of NMNH calcium salt amorphous solid (KF) ([1]; 0 day): 1.3%
- Water content of NMNH calcium salt amorphous solid (KF) ([1]; 5 days): 1.3%
- Water content of NMNH calcium salt amorphous solid (KF) ([1]; 60 days): 1.3%
- Purity (HPLC, area %) ([2]; 0 day): 99.28%
- Purity (HPLC, area %) ([2]; 5 days): 99.28%
- Purity (HPLC, area %) ([2]; 60 days): 99.28%

SMILES: NC(=O)C1=CN([C@@H]2O[C@H](COP(=O)([O-])[O-])[C@@H](O)[C@H]2O)C=CC1.[Na+].[Na+] [NMNH disodium salt Crystal form A, NMNH disodium salt]
- Purity (HPLC, area %) ([3]; 0 day, disodium salt): 99.33%
- Purity (HPLC, area %) ([3]; 0 day, listed as NMNH disodium salt crystal form A, disodium salt): 99.33%
- Purity (HPLC, area %) ([3]; 0 day, listed as NMNH disodium salt crystalline Form A solid, disodium salt): 99.33%
- Purity (HPLC, area %) ([3]; 1 day, disodium salt): 99.27%
- Purity (HPLC, area %) ([3]; 5 days): 99.01%

SMILES: NC(=O)C1=CN([C@@H]2O[C@H](COP(=O)(O)O)[C@@H](O)[C@H]2O)C=CC1.[Ca+2] [NMNH calcium salt Amorphous form A, reduced β-nicotinamide mononucleotide calcium salt]
- Water content of NMNH calcium salt amorphous solid (KF) ([1]; 0 day): 0.8%
- Water content of NMNH calcium salt amorphous solid (KF) ([1]; 5 days): 0.8%
- Water content of NMNH calcium salt amorphous solid (KF) ([1]; 60 days): 0.9%
- Purity (HPLC, area %) ([2]; 0 day): 99.51%
- Purity (HPLC, area %) ([2]; 5 days): 99.50%
- Purity (HPLC, area %) ([2]; 60 days): 99.50%

SMILES: NC(=O)C1=CN([C@@H]2O[C@H](COP(=O)([O-])[O-])[C@@H](O)[C@H]2O)C=CC1.[Na+].[Na+] [NMNH disodium salt crystal form B, NMNH disodium salt]
- Solid form change when stored in the air [4]: absorb water and transform into crystal form A

SMILES: NC(=O)C1=CN([C@@H]2O[C@H](COP(=O)(O)O)[C@@H](O)[C@H]2O)C=CC1.[Ca+2] [NMNH calcium salt Amorphous form C, reduced β-nicotinamide mononucleotide calcium salt]
- Water content of NMNH calcium salt amorphous solid (KF) ([1]; 0 day): 1.5%
- Water content of NMNH calcium salt amorphous solid (KF) ([1]; 5 days): 1.6%
- Water content of NMNH calcium salt amorphous solid (KF) ([1]; 60 days): 1.5%
- Purity (HPLC, area %) ([2]; 0 day): 99.14%
- Purity (HPLC, area %) ([2]; 5 days): 99.14%
- Purity (HPLC, area %) ([2]; 60 days): 99.13%

SMILES: NC(=O)C1=CN([C@@H]2O[C@H](COP(=O)(O)O)[C@@H](O)[C@H]2O)C=CC1.[Ca+2] [NMNH calcium salt Amorphous form D, reduced β-nicotinamide mononucleotide calcium salt]
- Water content of NMNH calcium salt amorphous solid (KF) ([1]; 0 day): 1.9%
- Water content of NMNH calcium salt amorphous solid (KF) ([1]; 5 days): 1.9%
- Water content of NMNH calcium salt amorphous solid (KF) ([1]; 60 days): 1.9%
- Purity (HPLC, area %) ([2]; 0 day): 99.50%
- Purity (HPLC, area %) ([2]; 5 days): 99.49%
- Purity (HPLC, area %) ([2]; 60 days): 99.49%

SMILES: NC(=O)C1=CN([C@@H]2O[C@H](COP(=O)([O-])[O-])[C@@H](O)[C@H]2O)C=CC1.[Na+].[Na+] [NMNH disodium salt Amorphous form, NMNH disodium salt]
- Purity (HPLC, area %) ([3]; 0 day, disodium salt): 99.30%
- Purity (HPLC, area %) ([3]; 0 day, listed as NMNH disodium salt amorphous powder, disodium salt): 99.30%
- Purity (HPLC, area %) ([3]; 0 day, listed as amorphous solid of NMNH disodium salt, disodium salt): 99.30%
- Appearance after storage (powder to oil) ([3]; 1 day): oil
- Purity (HPLC, area %) ([3]; 1 day, disodium salt): 99.02%
- Purity (HPLC, area %) ([3]; 1 day, listed as NMNH disodium salt amorphous powder, disodium salt): 99.02%
- Purity (HPLC, area %) ([3]; 1 day, listed as amorphous solid of NMNH disodium salt, disodium salt): 99.02%
